For test [1], the system named is Staphylococcus aureus. Kind of test: Antimicrobial activity against methicillin-resistant Staphylococcus aureus ATCC 6538 assessed as mutant prevention concentration after 48 hrs. Type of test: functional, organism-based.
Test [2] concerns Staphylococcus aureus. Briefly: Antimicrobial activity against methicillin-resistant Staphylococcus aureus ATCC 43300 assessed as mutant prevention concentration after 48 hrs. It is filed as functional, organism-based.

Calls of active or inactive are those of the source. No cut-off for these calls is given here.

With `O=C(O)c1cn(C2CC2)c2cc(N3CCNCC3)c(F)cc2c1=O`, the outcome in test [1] and in test [2] was Active.

The values are drawn from ChEMBL document CHEMBL1255357, “Enrichment of fluoroquinolone-resistant Staphylococcus aureus: oscillating ciprofloxacin concentrations simulated at the upper and lower portions of the mutant selection window” (Antimicrob Agents Chemother, 2008).
